Measured values published in patent US7074789B2, “Kinase inhibitors” (Amgen Inc., priority 1999, dated 2006).

What was measured:
Type in all cases: biochemical
Src = molecular target: T1, Src (Homo sapiens, UniProt P12931); experiment: Kinase inhibition assay (33P transfer), Src; details: Table 6, Src-1 kinase inhibition class
T1 construct: Kinases are expressed as either kinase domains or full length constructs; made in house
Outline: (§1)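 Activity read as 33P incorporation from ATP into poly(Glu,Tyr) 4:1 or poly(Arg,Ser) 3:1 substrate bound to microtiter plates, measured by scintillation after acid washing. Enzymes were affinity-purified GST or polyHis fusions (kinase domain or full length) from E. coli or baculovirus; IC50 = 50% reduction in labelled phosphate.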

Fyn = molecular target: T2, Fyn (Homo sapiens, UniProt P06241); experiment: Kinase inhibition assay (33P transfer), Fyn; details: for IC50: read-out: Fyn-1
T2 construct: Kinases are expressed as either kinase domains or full length constructs; made in house
Outline: as §1

Itk = molecular target: T3, Itk (Homo sapiens, UniProt Q08881); experiment: Kinase inhibition assay (33P transfer), Itk; details: Table 3; for IC50: read-out: Itk-1
T3 construct: Kinases are expressed as either kinase domains or full length constructs; made in house
T3 sequence (Q08881 1-620): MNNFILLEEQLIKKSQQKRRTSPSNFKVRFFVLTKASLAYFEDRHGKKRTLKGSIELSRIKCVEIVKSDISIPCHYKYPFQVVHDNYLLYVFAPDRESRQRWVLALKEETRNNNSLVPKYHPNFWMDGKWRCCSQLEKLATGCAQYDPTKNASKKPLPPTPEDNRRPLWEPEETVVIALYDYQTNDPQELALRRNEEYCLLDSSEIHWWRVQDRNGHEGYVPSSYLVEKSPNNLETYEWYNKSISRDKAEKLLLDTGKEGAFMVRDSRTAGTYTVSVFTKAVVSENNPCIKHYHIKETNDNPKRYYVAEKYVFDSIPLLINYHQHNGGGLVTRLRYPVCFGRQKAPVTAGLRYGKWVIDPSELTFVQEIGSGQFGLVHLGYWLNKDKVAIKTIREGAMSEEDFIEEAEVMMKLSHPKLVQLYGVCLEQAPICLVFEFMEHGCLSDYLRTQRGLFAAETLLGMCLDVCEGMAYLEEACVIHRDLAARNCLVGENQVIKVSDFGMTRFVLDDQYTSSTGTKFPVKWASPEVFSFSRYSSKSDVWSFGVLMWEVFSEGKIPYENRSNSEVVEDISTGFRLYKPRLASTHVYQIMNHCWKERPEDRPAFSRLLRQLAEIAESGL
Outline: as §1

EGFR = molecular target: T4, EGFR (Homo sapiens, UniProt P00533); experiment: Kinase inhibition assay (33P transfer), EGFR; details: Table 2, kinase inhibition class; for IC50: read-out: EGFR-1
T4 construct: Kinases are expressed as either kinase domains or full length constructs; made in house
Outline: as §1

EPHB4 = molecular target: T5, EPHB4 (Homo sapiens, UniProt P54760); experiment: Kinase inhibition assay (33P transfer), EPHB4; details: for IC50: read-out: EPHB4-1
T5 construct: Kinases are expressed as either kinase domains or full length constructs; made in house
T5 sequence (P54760 16-987): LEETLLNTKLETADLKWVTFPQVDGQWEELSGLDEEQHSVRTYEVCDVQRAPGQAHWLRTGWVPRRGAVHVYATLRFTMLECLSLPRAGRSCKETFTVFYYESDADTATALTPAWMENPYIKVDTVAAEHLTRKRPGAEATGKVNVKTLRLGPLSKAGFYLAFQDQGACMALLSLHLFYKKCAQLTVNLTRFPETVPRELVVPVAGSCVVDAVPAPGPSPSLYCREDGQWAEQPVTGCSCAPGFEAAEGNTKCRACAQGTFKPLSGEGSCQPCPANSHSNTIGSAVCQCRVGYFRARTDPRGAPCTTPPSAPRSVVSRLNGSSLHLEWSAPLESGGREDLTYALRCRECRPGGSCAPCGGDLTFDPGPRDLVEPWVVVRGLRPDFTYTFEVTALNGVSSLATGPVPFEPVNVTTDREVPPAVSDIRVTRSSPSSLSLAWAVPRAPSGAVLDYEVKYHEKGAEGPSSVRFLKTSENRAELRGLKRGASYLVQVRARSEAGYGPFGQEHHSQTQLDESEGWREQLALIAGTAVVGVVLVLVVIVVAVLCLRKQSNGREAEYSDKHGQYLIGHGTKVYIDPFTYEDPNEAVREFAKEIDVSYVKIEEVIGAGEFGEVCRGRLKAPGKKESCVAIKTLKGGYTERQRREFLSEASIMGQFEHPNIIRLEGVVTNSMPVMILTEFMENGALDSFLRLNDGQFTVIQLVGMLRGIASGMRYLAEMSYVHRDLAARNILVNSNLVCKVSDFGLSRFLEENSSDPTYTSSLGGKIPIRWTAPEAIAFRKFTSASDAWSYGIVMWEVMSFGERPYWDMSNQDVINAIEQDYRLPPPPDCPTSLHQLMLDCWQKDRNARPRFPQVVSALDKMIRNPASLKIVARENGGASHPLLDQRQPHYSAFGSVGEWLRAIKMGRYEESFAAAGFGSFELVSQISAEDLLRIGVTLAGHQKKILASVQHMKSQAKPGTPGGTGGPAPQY

Tek = molecular target: T6, Tek (Homo sapiens, UniProt Q02763); experiment: Kinase inhibition assay (33P transfer), Tek; details: read-out: Tek-1
T6 construct: Kinases are expressed as either kinase domains or full length constructs; made in house
Outline: as §1

Ret-1 = molecular target: T7, Ret-1 (Homo sapiens, UniProt P07949); experiment: Kinase inhibition assay (33P transfer), Ret; details: Table 6, Ret-1 kinase inhibition class
T7 construct: Kinases are expressed as either kinase domains or full length constructs; made in house

ErbB4 = molecular target: T8, ErbB4 (Homo sapiens, UniProt Q15303); experiment: Kinase inhibition assay (33P transfer), ErbB4; details: read-out: ErbB4-1
T8 construct: Kinases are expressed as either kinase domains or full length constructs; made in house
T8 sequence (Q15303 26-1308, species assumed): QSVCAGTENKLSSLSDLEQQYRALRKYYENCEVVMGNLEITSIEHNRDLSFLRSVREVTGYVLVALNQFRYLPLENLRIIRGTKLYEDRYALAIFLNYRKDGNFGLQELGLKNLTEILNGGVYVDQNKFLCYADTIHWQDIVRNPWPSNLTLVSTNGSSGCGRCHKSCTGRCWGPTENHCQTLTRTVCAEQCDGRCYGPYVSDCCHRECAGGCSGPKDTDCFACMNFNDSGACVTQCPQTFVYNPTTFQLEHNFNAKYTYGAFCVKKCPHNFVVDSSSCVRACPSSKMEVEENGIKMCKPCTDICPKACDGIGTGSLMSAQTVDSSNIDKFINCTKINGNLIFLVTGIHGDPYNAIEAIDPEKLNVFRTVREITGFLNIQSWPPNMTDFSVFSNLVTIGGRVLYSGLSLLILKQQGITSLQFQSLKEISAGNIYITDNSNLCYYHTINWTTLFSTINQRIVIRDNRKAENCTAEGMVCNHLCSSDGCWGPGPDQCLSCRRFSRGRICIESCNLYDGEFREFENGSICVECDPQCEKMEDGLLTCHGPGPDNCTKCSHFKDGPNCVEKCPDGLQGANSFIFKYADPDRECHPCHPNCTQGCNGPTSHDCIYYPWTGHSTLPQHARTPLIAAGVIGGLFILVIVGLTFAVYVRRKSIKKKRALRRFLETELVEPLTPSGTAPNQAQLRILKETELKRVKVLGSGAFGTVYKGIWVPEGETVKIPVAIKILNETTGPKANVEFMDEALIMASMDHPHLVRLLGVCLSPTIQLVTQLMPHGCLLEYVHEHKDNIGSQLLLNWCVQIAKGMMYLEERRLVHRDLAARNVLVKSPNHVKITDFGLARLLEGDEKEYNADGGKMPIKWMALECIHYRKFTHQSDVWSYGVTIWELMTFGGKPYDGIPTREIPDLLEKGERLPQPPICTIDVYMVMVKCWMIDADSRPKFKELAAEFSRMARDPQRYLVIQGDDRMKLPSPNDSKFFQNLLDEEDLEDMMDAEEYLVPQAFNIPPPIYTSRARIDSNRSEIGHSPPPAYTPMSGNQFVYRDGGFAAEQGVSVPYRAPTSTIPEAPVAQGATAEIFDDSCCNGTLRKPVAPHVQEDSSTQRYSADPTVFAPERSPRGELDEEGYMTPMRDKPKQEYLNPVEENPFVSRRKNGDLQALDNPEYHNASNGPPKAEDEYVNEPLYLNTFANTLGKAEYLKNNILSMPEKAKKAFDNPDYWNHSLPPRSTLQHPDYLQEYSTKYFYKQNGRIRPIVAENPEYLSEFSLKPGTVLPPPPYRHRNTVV

T2 sequence (P06241 whole entry, species assumed, the tested form may be a part): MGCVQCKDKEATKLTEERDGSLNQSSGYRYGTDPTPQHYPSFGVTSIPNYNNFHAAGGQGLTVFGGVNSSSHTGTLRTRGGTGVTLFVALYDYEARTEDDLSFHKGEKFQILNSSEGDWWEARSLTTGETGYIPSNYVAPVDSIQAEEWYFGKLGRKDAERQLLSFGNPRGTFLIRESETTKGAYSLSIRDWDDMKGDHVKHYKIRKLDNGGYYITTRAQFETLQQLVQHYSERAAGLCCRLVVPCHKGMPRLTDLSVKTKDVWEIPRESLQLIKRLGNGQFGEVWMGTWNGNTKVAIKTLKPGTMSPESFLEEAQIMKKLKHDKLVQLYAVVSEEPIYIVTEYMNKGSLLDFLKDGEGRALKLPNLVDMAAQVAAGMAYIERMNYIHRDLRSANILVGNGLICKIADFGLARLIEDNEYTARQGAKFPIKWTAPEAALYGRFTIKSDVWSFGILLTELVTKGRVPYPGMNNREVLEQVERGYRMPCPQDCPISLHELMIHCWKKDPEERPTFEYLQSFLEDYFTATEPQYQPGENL
T7 sequence (P07949 29-1114): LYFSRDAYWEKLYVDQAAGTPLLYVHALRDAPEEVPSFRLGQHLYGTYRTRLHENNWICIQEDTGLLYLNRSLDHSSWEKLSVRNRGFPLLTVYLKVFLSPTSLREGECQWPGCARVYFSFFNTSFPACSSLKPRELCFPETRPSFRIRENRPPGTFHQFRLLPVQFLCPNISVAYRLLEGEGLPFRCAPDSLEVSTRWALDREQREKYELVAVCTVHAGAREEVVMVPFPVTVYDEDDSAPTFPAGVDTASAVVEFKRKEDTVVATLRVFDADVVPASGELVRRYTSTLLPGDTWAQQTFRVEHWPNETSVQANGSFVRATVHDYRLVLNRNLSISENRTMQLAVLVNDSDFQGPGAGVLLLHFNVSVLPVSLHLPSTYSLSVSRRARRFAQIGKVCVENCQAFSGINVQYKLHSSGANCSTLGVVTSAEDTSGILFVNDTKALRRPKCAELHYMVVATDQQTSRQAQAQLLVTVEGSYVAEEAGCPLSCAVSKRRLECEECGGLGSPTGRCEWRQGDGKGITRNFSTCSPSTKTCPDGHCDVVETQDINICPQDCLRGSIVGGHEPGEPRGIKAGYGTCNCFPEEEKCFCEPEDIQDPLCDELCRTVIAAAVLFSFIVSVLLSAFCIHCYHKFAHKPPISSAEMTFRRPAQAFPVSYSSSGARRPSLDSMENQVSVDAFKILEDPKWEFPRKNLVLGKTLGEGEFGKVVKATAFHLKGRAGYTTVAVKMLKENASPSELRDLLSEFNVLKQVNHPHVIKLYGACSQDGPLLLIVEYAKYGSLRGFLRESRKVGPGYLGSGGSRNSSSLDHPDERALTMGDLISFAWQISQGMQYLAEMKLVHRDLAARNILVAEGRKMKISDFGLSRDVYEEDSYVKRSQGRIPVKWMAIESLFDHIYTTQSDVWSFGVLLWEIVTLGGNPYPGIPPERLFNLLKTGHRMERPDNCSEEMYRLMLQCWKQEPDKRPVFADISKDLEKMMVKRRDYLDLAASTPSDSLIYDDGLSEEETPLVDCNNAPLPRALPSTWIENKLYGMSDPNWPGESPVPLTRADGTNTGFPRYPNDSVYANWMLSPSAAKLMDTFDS
T4 sequence (P00533 25-1210, species assumed): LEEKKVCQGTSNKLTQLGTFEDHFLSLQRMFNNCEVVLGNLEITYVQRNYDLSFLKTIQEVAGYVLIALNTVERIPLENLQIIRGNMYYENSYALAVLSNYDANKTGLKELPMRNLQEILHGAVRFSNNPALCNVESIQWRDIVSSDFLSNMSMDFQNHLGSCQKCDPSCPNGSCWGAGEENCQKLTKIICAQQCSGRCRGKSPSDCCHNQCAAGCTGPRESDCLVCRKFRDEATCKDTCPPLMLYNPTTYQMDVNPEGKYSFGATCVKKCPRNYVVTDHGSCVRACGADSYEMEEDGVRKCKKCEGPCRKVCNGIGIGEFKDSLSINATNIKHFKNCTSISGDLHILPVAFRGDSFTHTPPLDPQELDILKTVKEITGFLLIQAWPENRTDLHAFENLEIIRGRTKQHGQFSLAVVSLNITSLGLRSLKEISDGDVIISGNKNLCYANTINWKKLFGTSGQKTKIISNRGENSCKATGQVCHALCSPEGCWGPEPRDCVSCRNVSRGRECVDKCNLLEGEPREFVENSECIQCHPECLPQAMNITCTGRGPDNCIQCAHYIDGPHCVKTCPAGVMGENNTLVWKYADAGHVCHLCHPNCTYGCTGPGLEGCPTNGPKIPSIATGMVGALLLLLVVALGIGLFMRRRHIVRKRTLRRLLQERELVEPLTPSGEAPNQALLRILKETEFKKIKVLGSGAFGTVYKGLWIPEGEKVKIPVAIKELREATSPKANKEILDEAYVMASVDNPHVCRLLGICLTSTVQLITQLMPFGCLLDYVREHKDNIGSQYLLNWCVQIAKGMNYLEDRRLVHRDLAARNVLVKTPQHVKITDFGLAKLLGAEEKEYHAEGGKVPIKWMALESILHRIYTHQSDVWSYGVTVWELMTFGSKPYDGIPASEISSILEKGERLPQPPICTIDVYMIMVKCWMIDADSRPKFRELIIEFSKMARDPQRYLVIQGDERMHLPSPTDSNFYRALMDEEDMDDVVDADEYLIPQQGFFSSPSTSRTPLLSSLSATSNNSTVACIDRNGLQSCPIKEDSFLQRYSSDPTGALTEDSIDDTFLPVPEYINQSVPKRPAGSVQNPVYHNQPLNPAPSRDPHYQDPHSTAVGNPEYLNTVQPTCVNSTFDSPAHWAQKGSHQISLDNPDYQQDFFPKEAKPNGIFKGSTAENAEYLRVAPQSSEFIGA
T1 sequence (P12931 whole entry, species assumed, the tested form may be a part): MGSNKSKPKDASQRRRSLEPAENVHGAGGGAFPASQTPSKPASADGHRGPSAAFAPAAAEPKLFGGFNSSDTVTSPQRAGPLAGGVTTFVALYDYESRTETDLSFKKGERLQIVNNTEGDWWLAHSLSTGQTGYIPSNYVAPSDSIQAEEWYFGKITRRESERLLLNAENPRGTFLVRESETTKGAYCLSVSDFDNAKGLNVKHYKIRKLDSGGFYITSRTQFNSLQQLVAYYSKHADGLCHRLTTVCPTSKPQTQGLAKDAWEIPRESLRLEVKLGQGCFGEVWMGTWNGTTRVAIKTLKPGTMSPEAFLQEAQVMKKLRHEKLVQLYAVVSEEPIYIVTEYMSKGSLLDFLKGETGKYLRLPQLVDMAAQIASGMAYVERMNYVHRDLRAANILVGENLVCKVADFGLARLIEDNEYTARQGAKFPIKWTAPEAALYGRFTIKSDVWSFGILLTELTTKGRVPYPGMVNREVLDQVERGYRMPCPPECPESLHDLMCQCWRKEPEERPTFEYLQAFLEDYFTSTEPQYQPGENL

Structure (SMILES)	IC50 (Src)	IC50 (Fyn)	IC50 (Itk)	IC50 (EGFR)	IC50 (Tek)	IC50 (EPHB4)	IC50 (Ret-1)	IC50 (ErbB4)	Src-1 (Src)	Fyn-1 (Fyn)	Itk-1 (Itk)	EGFR-1 (EGFR)	EPHB4-1 (EPHB4)
COc1ccc(Nc2ncnc(Nc3cc(OC)c(OC)c(OC)c3)n2)cn1 [Compound 28]	–	–	–	–	–	–	–	–	B (B>0.4 and <2.4 ug/mL)	B (B>0.4 and <2.4 ug/mL)	E (E>4.5 ug/mL)	B (B>0.4 and <2.4 ug/mL)	B (B>0.4 and <2.4 ug/mL)
COc1ccc(Nc2ncnc(Nc3cc(OC)c(OC)c(OC)c3)n2)cc1OC [Compound 36]	> 10.9 µM	> 10.9 µM	> 10.9 µM	8.47 to 10.9 µM	8.47 to 10.9 µM	8.47 to 10.9 µM	> 10.9 µM	–	–	–	–	–	–
COc1ccc(N(C)c2ncnc(Nc3cc(OC)c(OC)c(OC)c3)n2)cc1 [Compound 106]	–	–	> 11.3 µM	1.01 to 6.04 µM	> 11.3 µM	1.01 to 6.04 µM	1.01 to 6.04 µM	6.04 to 8.81 µM	–	–	–	–	–
COc1ccc(Nc2ncnc(Nc3cccc(C)c3)n2)cc1OC [Compound 108]	1.19 to 7.11 µM	1.19 to 7.11 µM	> 13.3 µM	< 1.19 µM	> 13.3 µM	> 13.3 µM	–	10.4 to 13.3 µM	–	–	–	–	–
Cc1cccc(Nc2ncnc(Nc3cccc(Br)c3)n2)c1 [Compound 109]	–	–	> 12.6 µM	< 1.12 µM	> 12.6 µM	> 12.6 µM	–	> 12.6 µM	–	–	–	–	–
COc1ccc(Nc2ncnc(Nc3ccc(N(C)C)cc3)n2)cc1OC [Compound 114]	–	–	> 12.3 µM	> 12.3 µM	> 12.3 µM	> 12.3 µM	1.09 to 6.55 µM	–	–	–	–	–	–
CCOc1ccc(Nc2ncnc(Nc3ccc(OCc4ccccc4)cc3)n2)cc1OCC [Compound 170]	> 9.84 µM	> 9.84 µM	> 9.84 µM	0.874 to 5.25 µM	5.25 to 7.65 µM	5.25 to 7.65 µM	–	7.65 to 9.84 µM	–	–	–	–	–
COc1cc(Nc2ncnc(Nc3cc(OC)c(OC)c(OC)c3)n2)cc(OC)n1 [Compound 253]	< 0.965 µM	> 10.9 µM	> 10.9 µM	5.79 to 8.45 µM	–	> 10.9 µM	–	–	–	–	–	–	–
COc1ccc(Nc2ncnc(-n3c(N)nc4ccccc43)n2)cc1O [Compound 286]	10 to 12.9 µM	> 12.9 µM	1.14 to 6.87 µM	6.87 to 10 µM	1.14 to 6.87 µM	6.87 to 10 µM	< 1.14 µM	–	–	–	–	–	–
COc1cc(Nc2ncnc(-n3c(N)nc4ccccc43)n2)ccc1OCCn1ccnn1 [Compound 324]	> 10.1 µM	> 10.1 µM	0.9 to 5.4 µM	> 10.1 µM	0.9 to 5.4 µM	> 10.1 µM	< 0.9 µM	–	–	–	–	–	–
COCCOc1ccc(Nc2ncnc(Nc3cc(-c4ccco4)n[nH]3)n2)cc1OCCOC [Compound 328]	0.856 to 5.13 µM	5.13 to 7.49 µM	0.856 to 5.13 µM	0.856 to 5.13 µM	5.13 to 7.49 µM	> 9.63 µM	0.856 to 5.13 µM	–	–	–	–	–	–
C=CCN(c1ccc(Cl)cc1)c1ncnc(Nc2cc(OC)c(OC)c(OC)c2)n1 [Compound 972]	0.935 to 5.61 µM	0.935 to 5.61 µM	> 10.5 µM	< 0.935 µM	8.18 to 10.5 µM	0.935 to 5.61 µM	–	0.935 to 5.61 µM	–	–	–	–	–

Continued, in another order:

IC50 (Src)	IC50 (Fyn)	IC50 (Itk)	IC50 (EGFR)	IC50 (Tek)	IC50 (EPHB4)	IC50 (Ret-1)	IC50 (ErbB4)	Structure (SMILES)	Src-1 (Src)	Fyn-1 (Fyn)	Itk-1 (Itk)	EGFR-1 (EGFR)	EPHB4-1 (EPHB4)
6.04 to 8.81 µM	1.01 to 6.04 µM	> 11.3 µM	1.01 to 6.04 µM	> 11.3 µM	< 1.01 µM	> 11.3 µM	–	COc1cc(Nc2ncnc(Nc3ccc(C(=O)O)cc3)n2)cc(OC)c1OC [Compound 104]	–	–	–	–	–
1.05 to 6.33 µM	1.05 to 6.33 µM	> 11.9 µM	> 11.9 µM	> 11.9 µM	6.33 to 9.22 µM	> 11.9 µM	–	COc1cc(Nc2ncnc(N3CCc4ccccc43)n2)cc(OC)c1OC [Compound 184]	–	–	–	–	–
–	–	> 13 µM	> 13 µM	> 13 µM	> 13 µM	–	–	COc1cc(Nc2ncnc(N3CCCCC3)n2)cc(OC)c1OC [Compound 207]	–	–	–	–	–
< 1.01 µM	1.01 to 6.04 µM	6.04 to 8.81 µM	1.01 to 6.04 µM	> 11.3 µM	1.01 to 6.04 µM	> 11.3 µM	–	COc1cc(Nc2ncnc(Nc3ccc4c(c3)OCO4)n2)cc(OC)c1OC [Compound 252]	–	–	–	–	–
> 11.5 µM	> 11.5 µM	> 11.5 µM	> 11.5 µM	> 11.5 µM	> 11.5 µM	> 11.5 µM	–	COc1cc(Nc2ncnc(-n3cc(C)c4ccccc43)n2)cc(OC)c1OC [Compound 323]	–	–	–	–	–
< 1.05 µM	< 1.05 µM	6.28 to 9.15 µM	< 1.05 µM	> 11.8 µM	1.05 to 6.28 µM	–	1.05 to 6.28 µM	COc1cc(Nc2ncnc(Nc3ccc(C)c(N)c3)n2)cc(OC)c1OC [Compound 935]	–	–	–	–	–
< 0.857 µM	< 0.857 µM	5.14 to 7.5 µM	< 0.857 µM	> 9.64 µM	< 0.857 µM	–	0.857 to 5.14 µM	COc1cc(Nc2ncnc(Nc3ccc(Br)c(Cl)c3)n2)cc(OC)c1OC [Compound 936]	–	–	–	–	–
> 13.3 µM	10.3 to 13.3 µM	> 13.3 µM	> 13.3 µM	> 13.3 µM	> 13.3 µM	> 13.3 µM	–	COc1cc(Nc2ncnc(-c3ccccc3)n2)cc(OC)c1OC [Compound 970]	–	–	–	–	–
